The test system of one assay is LDL. In words: LDL anti-oxidative activity, Cu-mediated LDL-oxidation, TBA method. It is filed as biochemical, human. The conditions noted are these: CuSO4, 37° C., 4 hours, MDA by TBA; read-out: LDL-oxidation inhibitory activity (IC50). The method, then:
Cu^2+ has been known to induce LDL-oxidation (Cu-mediated LDL-oxidation). In this invention, dialdehyde, the oxide of unsaturated fatty acid, generated during LDL-oxidation was measured by TBA (thiobarbituric acid) method to investigate the anti-oxidative activity of the pterocarpan compound isolated from soybean leaves (Packer, L. Ed. (1994) Methods in Enzymology Vol. 234, Oxygen radicals in biological systems Part D. Academic press, San Diego).
Three hundred (300) ml of human plasma were centrifuged at 100,000×g for 24 hours to remove floating VLDL/chylomicron layer in upper part. The specific gravity of the remaining solution was adjusted to […], followed by re-centrifugation at 100,000×g for 24 hours, and 25 ml of the floating LDL (1.5-2.5 mg protein/ml) in upper layer was separated.
Twenty (20) μl of the separated LDL (protein conc. 50-100 μg/ml) was mixed with 210 μl of 10 mM PBS, to which 10 μl of each of the pterocarpan compounds represented by Formula 2-Formula 5 of the present invention was added respectively.
The pterocarpan compounds were dissolved in DMSO, which were further diluted properly for the experiment. In this assay, the negative control was used the DMSO only, while the positive control was used a known LDL-antioxidant, probucol.
Ten (10) μl of 0.25 mM CuSO4 was added to the above reaction mixture, followed by reaction at 37° C. for 4 hours. The reaction was terminated by adding 1 ml of 20% trichloroacetic acid (TCA) solution. One (1) ml of 0.67% thiobarbituric acid (TBA) dissolved in 0.05 N NaOH solution was added thereto, followed by stirring for 10 seconds. Then, the reaction mixture was heated at 95° C. for 5 minutes to induce color development. The solution was cooled down with iced water and centrifuged at 3,000 rpm for 5 minutes to separate supernatant. The amount of malondialdehyde (MDA) generated by the color development was calculated by measuring optical density at 540 nm (OD540) with UV-VIS Spectrophotometer.
PBS standard solution containing 0-10 nmol MDA was prepared by […] with tetramethoxypropane malonaldehyde bis (dimethylacetal) stock solution. Color development was induced with the standard solution, followed by measuring OD540. The generated MDA was quantified by using the standard curve in experiments with the pterocarpan compound of the present invention.

Another assay addresses T1, hACAT-2 (Homo sapiens, UniProt O75908).
T1 construct: made in house; host or cells: Hi5 insect cells (baculovirus; virus produced in sf9), microsome fraction
T1 sequence (O75908 1-522): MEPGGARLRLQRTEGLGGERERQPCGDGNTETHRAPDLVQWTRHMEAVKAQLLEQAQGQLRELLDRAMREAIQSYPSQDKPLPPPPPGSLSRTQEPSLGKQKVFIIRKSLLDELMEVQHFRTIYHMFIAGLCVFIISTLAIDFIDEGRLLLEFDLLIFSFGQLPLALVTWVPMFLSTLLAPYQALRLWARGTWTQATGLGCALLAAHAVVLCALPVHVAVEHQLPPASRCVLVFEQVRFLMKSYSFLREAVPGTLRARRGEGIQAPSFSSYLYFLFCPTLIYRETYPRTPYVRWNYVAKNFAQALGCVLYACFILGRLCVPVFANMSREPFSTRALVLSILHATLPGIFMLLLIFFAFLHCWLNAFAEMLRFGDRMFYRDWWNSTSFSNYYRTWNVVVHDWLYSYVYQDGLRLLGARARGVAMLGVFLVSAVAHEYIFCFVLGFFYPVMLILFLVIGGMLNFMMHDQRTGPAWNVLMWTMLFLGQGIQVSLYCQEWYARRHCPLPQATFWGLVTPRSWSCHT
In words: hACAT inhibitory activity, microsome fraction of Hi5 cells, [1-14C] oleoyl-CoA substrate. It is filed as biochemical. The conditions noted are these: read-out: Inhibitory activity at 100 μM (%) hACAT2. The procedure: (§1) cDNA of each hACAT-1 and hACAT-2 obtained by human liver cDNA library screening was inserted into baculovirus vector, which was then introduced into the insect cell sf9 to produce target virus. The recombinant virus of each hACAT-1 and hACAT-2 was separated by plaque purification and then amplified three times to increase titer of viral stock.
(§2) To separate microsome fractions from the cultured Hi5 cells over-expressing hACAT-1 and hACAT-2, centrifugation was performed at 500 rpm for 15 minutes. The collected cells were lysed by quick-freezing/quick-thawing in hypotonic buffer, followed by ultracentrifugation at 100,000 rpm for one hour. The obtained microsome fractions were suspended in hypotonic buffer to make the protein concentration to be 8 mg/ml, which was stored in −70° C. freezer until use.
(§3) Human ACAT (hACAT) activity was measured by the method of Brecher & Chan (P. Brecher and C. Chan, Biochem. Biophys. Acta, 1980, 617: 458) with slight modification using [1-^14C] oleoyl-CoA (56.0 ρCi/μmol; Amersham) as a substrate. 10 μl of each of the pterocarpan compounds represented by Formula 2-Formula 5 obtained in Example 1 in dimethylsulfoxide (DMSO) was mixed with 4.0 μl of the microsome solution obtained in step 1, 20.0 μl a of assay buffer (0.5 M KH2PO4, 10 mM DTT, pH 7.4; Sigma), 15.0 μl of bovine serum albumin (BSA, stock solution conc. 40 mg/ml; Sigma), 2.0 μl of cholesterol (stock solution conc. 20 mg/ml; Sigma), and 41.0 μl of distilled water, followed by pre-reaction at 37° C. for 15 minutes. In this assay, the negative control was used the DMSO alone, and the positive control was used a known ACAT inhibitor, oleic acid anilide.
(§4) Eight (8) μl of [1-^14C] oleoyl-CoA (0.05 μCi, final conc. 10.0 μM) was added to the above reaction mixture, followed by reaction at 37° C. for 30 minutes. The reaction was terminated by adding 1 ml of isopropanol:heptane mixed solution (4:1(v/v)). Six hundred (600) μl of heptane and 200 μl of 0.1 M KH2PO4 (pH 7.4) were added thereto and the reaction mixture was vortexed vigorously and centrifuged at 300 rpm for 5 minutes. The obtained upper phase (100 μl) was added in a scintillation vial, to which 4 ml of scintillation solution (Lipoluma, Lumac Co.) were added. Radioactivity of the upper phase was measured by 1450 Microbeta liquid scintillation counter (Wallacoy).
(§5) hACAT activity was calculated based on the radioactivity, the amount of synthesized cholesteryl oleated, measured above and expressed as a defined unit, pico mole per 1 mg of protein for 1 minute (pico mole/minute/mg protein).

The next assay addresses T2, hACAT-1 (Homo sapiens, UniProt P35610).
T2 construct: made in house; host or cells: Hi5 insect cells (baculovirus; virus produced in sf9), microsome fraction
T2 sequence (P35610 1-550): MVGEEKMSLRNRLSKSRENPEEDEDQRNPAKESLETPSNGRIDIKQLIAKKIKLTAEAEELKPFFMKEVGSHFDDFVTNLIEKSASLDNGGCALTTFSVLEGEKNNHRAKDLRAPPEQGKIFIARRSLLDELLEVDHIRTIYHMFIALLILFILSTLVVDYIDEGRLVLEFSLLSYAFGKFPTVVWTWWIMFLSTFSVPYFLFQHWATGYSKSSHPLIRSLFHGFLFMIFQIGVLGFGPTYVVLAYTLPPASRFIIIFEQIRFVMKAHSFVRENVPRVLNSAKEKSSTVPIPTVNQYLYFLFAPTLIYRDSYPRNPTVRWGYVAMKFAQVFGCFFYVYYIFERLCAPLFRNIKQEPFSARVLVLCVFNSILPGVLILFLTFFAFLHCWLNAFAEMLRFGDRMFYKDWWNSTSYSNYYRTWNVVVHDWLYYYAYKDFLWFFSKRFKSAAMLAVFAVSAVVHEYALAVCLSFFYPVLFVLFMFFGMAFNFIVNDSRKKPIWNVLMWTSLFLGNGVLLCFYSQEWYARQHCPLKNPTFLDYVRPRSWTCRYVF
The description is as above. It counts as biochemical. To be noted: for inhibition at 100 µM: read-out: Inhibitory activity at 100 μM (%) hACAT1. The procedure:
as §1, §2, §3, §4, §5

The values that follow come from US20160067209A1, “PTEROCARPAN COMPOUND OR PHARMACEUTICALLY ACCEPTABLE SALT THEREOF AND PHARMACEUTICAL COMPOSITION FOR PREVENTION OR TREATMENT OF METABOLIC DISEASE OR COMPLICATION THEREOF, OR FOR ANTIOXIDANT CONTAINING THE SAME AS AN ACTIVE INGREDIENT” (KOREA RESEARCH INSTITUTE OF BIOSCIENCE AND BIOTECHNOLOGY, priority 2010, published 2016).

The IC50 is the concentration at which inhibition is half-maximal. Take `COc1cc(O)cc2oc(=O)c3c4ccc(O)cc4oc3c12` [Formula 4, isotrifoliol]: the IC50 in the assay with LDL amounted to 4.5 µM. Further, the inhibition at 100 µM on hACAT-2 was determined as 7.9%; on hACAT-1, 14.9%.
Take `CC(C)=CCc1c(O)ccc2c1oc(=O)c1c3ccc(O)cc3oc21` [Formula 5, phaseol]: the IC50 in the assay on LDL amounted to 1 µM. For the same compound, the inhibition at 100 µM on hACAT-2 was found to be 67.4%; at hACAT-1, 85.8%. The “Inhibitory activity at 100 μM (%) hACAT1” value at hACAT-1 (100 µM) worked out at 85.9%.
Turning to `C=C(C)c1cc2cc3c(cc2o1)OC[C@@]1(O)c2ccc(O)cc2O[C@@H]31` [Formula 2, (6aS,11aS)-2-(pro-1-pene-2-yl)-6a,11a-dihydro-6H-benzofuro[3,2-c]furo[3,2-g]chromene-6a,9-diol], the IC50 in the assay with LDL is 43 µM. Moreover, the inhibition at 100 µM on hACAT-2 stood at 22.9%; at hACAT-1, 29.7%.
For `COc1ccc2c(c1)O[C@H]1c3c(cc(O)c(CC=C(C)C)c3OC)OC[C@@]21O` [Formula 3], the IC50 with LDL was 51.8 µM. Further, the inhibition at 100 µM at hACAT-2 was 20.3%; on hACAT-1, 35.2%.
